In data set [1] the test system is Alternaria solani. Briefly: In vivo preventive test on Alternaria solani (tomato). The following applies: 500 ppm of active ingredient, evaluated 7 days after inoculation. Here is the method: Solvent: 49 parts by weight of N,N-dimethylformamide Emulsifier: 1 part by weight of Alkylarylpolyglycolether To produce a suitable preparation of active compound, 1 part by weight of active compound is mixed with the stated amounts of solvent and emulsifier, and the concentrate is diluted with water to the desired concentration. To test for preventive activity, young plants are sprayed with the preparation of active compound at the stated rate of application. One day after this treatment, the plants are inoculated with an aqueous spore suspension of Alternaria solani. The plants remain for one day in an incubation cabinet at approximately 22° C. and a relative atmospheric humidity of 100%. Then the plants are placed in an incubation cabinet at approximately 20° C. and a relative atmospheric humidity of 96%. The test is evaluated 7 days after the inoculation. 0% means an efficacy which corresponds to that of the untreated control while an efficacy of 100% means that no disease is observed.

Data set [2] in a line: log P by HPLC on reversed-phase column (C 18), EEC Directive 79/831 Annex V.A8. The data set is classed as physicochemical. The following applies: HPLC on reversed-phase column (C 18); 40° C.; 0.1% aqueous formic acid and acetonitrile; linear gradient 10% to 90% acetonitrile. Here is the method: In table 1, the log P values were determined in accordance with EEC Directive 79/831 Annex V.A8 by HPLC (High Performance Liquid Chromatography) on a reversed-phase column (C 18), using the method described below: Temperature: 40° C.; Mobile phases: 0.1% aqueous formic acid and acetonitrile; linear gradient from 10% acetonitrile to 90% acetonitrile. Calibration was carried out using unbranched alkan-2-ones (comprising 3 to 16 carbon atoms) with known log P values (determination of the log P values by the retention times using linear interpolation between two successive alkanones). lambda-max-values were determined using UV-spectra from 200 nm to 400 nm and the peak values of the chromatographic signals.

For data set [3], the system named is Pyrenophora teres. The data set can be described thus: In vivo preventive test on Pyrenophora teres (barley). The following applies: 500 ppm of active ingredient, evaluated 7-9 days after inoculation. Here is the method:
Solvent: 49 parts by weight of N,N-dimethylformamide Emulsifier: 1 part by weight of alkylaryl polyglycol ether To produce a suitable preparation of active compound, 1 part by weight of active compound is mixed with the stated amounts of solvent and emulsifier, and the concentrate is diluted with water to the desired concentration. To test for preventive activity, young plants are sprayed with the preparation of active compound at the stated rate of application. One day after this treatment, the plants are inoculated with an aqueous spore suspension of Pyrenophora teres. The plants remain for 48 hours in an incubation cabinet at 22° C. and a relative atmospheric humidity of 100%. Then the plants are placed in a greenhouse at a temperature of approximately 20° C. and a relative atmospheric humidity of approximately 80%. The test is evaluated 7-9 days after the inoculation. 0% means an efficacy which corresponds to that of the untreated control while an efficacy of 100% means that no disease is observed.

The structures appear in SMILES notation.

As usually defined, the logP is a log measure of how a compound divides between an organic and an aqueous phase. Low readings indicate lower lipophilicity, high ones higher lipophilicity.

Regarding `Cc1ccccc1C1CCCCN1C(=O)c1c(C(F)F)nn(C)c1Cl` (stereo not drawn) [Example 5], the values for the Efficacy in data set [1] and in data set [3] were 90% and 95%, respectively. Moreover, in data set [2], the logP came to 3.37.

`Cc1ccc(C2CCCCN2C(=O)c2c(C(F)F)nn(C)c2Cl)cc1C` (stereo not drawn) [Example 8]: the Efficacy in data set [1] was 94%; in data set [3], 90%. The compound also registered a lipophilicity (logP) in data set [2] of 3.87.

Take `Cc1cc(C)cc(C2CCCCN2C(=O)c2c(C(F)(F)F)cn(C)c2F)c1` (stereo not drawn) [Example 34]: the Efficacy in data set [1] was determined as 90%; in data set [3], 100%. Moreover, the logP in data set [2] is reported as 4.27.

In the case of `Cn1nc(C(F)F)c(C(=O)N2CCCCC2c2ccccc2Cl)c1Cl` (stereo not drawn) [Example 40], the Efficacy in data set [1] and in data set [3] was 95% each time. The logP in data set [2] is 3.48.

As for `Cn1nc(C(F)F)c(C(=O)N2CCCCC2c2cccc(Cl)c2)c1Cl` (stereo not drawn) [Example 47], the Efficacy in data set [1] and in data set [3] was 100% each time. Besides, in data set [2], the log partition coefficient (logP) is listed as 3.60.

Regarding `Cn1nc(C(F)F)c(C(=O)N2CCCCC2c2ccc(Cl)cc2)c1Cl` (stereo not drawn) [Example 55], the Efficacy in data set [1] came out at 95%; in data set [3], 80%. This compound also registered a logP in data set [2] of 3.67.

As to `Cc1cc(C(=O)N2CCCCC2c2ccc3c(c2)OCO3)c(C)o1` (stereo not drawn) [Example 58], the Efficacy in data set [1] is recorded as 78%. Further, the logP in data set [2] came to 3.33.

`CCc1nn(C)c(F)c1C(=O)N1CCCCC1c1ccc2c(c1)OCO2` (stereo not drawn) [Example 59]: the values for the Efficacy in data set [1] and in data set [3] were 78% and 70%, respectively. In data set [2], this compound returned a logP of 2.73.

`Cc1nn(C)c(F)c1C(=O)N1CCCCC1c1ccc2c(c1)OCO2` (stereo not drawn) [Example 60]: the figures for the Efficacy in data set [1] and in data set [3] were 94% and 80%, respectively. For the same compound, in data set [2], the logP is reported as 2.44.

Take `Cn1nc(C(F)F)c(C(=O)N2CCCCC2c2ccc3c(c2)OCCO3)c1F` (stereo not drawn) [Example 65]: the results for the Efficacy in data set [1] and in data set [3] were 90% and 100%, respectively. The logP in data set [2] is given as 2.75.

Take `Cc1cc(C(=O)N2CCCCC2c2cccc(Cl)c2Cl)c(C)o1` (stereo not drawn) [Example 71]: the Efficacy in data set [1] and in data set [3] was 80% in each case. Also, the logP in data set [2] was determined as 4.29.

Consider `CCc1noc(C)c1C(=O)N1CCCCC1c1cccc(Oc2ccccc2)c1` (stereo not drawn) [Example 110], for which the Efficacy in data set [1] is 78%. The logP in data set [2] is 4.16.

Turning to `CCc1nn(C)c(F)c1C(=O)N1CCCCC1c1cccc(Oc2ccccc2)c1` (stereo not drawn) [Example 112], the Efficacy in data set [1] is listed as 94%. The logP in data set [2] is 3.96.

Take `Cc1cc(C(=O)N2CCCCC2c2cccc(I)c2)c(C)o1` (stereo not drawn) [Example 116]: the Efficacy in data set [1] is 78%. Also, the logP in data set [2] was found to be 4.36.

In turn, `CCc1nn(C)c(F)c1C(=O)N1CCCCC1Cc1ccccc1` (stereo not drawn) [Example 131] displayed a logP in data set [2] of 2.92. The compound further displayed an Efficacy in data set [3] of 100%.

`Cc1cc(C(=O)N2CCCCC2Cc2ccccc2C)c(C)o1` (stereo not drawn) [Example 141]: in data set [1], the Efficacy came to 90%. In data set [2], this compound showed a logP of 3.87.

Regarding `Cc1cccc(CC2CCCCN2C(=O)c2cc(C)oc2C)c1` (stereo not drawn) [Example 143], the Efficacy in data set [1] is 80%. This compound also returned a logP in data set [2] of 3.96.

As for `Cc1ccc(CC2CCCCN2C(=O)c2cc(C)oc2C)cc1` (stereo not drawn) [Example 146], in data set [1], the Efficacy was found to be 95%. The compound also showed a logP in data set [2] of 3.99.

Compound `Cc1nc(C(F)F)c(C(=O)N2CCCCC2Cc2cccc(F)c2)s1` (stereo not drawn) [Example 151] came in with an Efficacy in data set [1] of 95%. In addition, the logP in data set [2] stood at 3.19.

The compound `Cc1cc(C(=O)N2CCCCC2Cc2ccc(F)cc2)c(C)o1` (stereo not drawn) [Example 155] registered an Efficacy in data set [1] of 78%. The compound also came in with a logP in data set [2] of 3.57.

`COc1ccccc1CC1CCCCN1C(=O)c1sc(C)nc1C(F)F` (stereo not drawn) [Example 159] had a logP in data set [2] of 3.33. In addition, the Efficacy in data set [3] is 90%.

In the case of `CCC(c1ccccc1Cl)C1CCCCN1C(=O)c1c(C(F)F)nn(C)c1Cl` (stereo not drawn) [Example 161], the logP in data set [2] worked out at 4.44. Moreover, the Efficacy in data set [3] amounted to 94%.

The values are drawn from patent US9545105B2, “1-(heterocyclic carbonyl) piperidines” (BAYER INTELLECTUAL PROPERTY GMBH, priority 2010, dated 2017).
